{
  "source": "patent US12128105B2",
  "about": "“Molecular degraders of extracellular proteins” (priority 2021, dated 2024)",
  "key": {"α-DNP antibody [1]": {"test_system": "α-DNP antibody", "experiment": "Colocalization microscopy studies (Alexa 488 signal, EEA1/LAMP2)", "format": "cell-based", "details": "FIG. 7A", "method": "Cells were grown in 8-well microscope cell culture containers (Thermo, 177402) treated with polylysine (Fisher Scientific, 343810001). For all experiments, D-MoDE-A was used at a final concentration of 40 nM, and antibody was used at a final concentration of 100 nM. At 12 hours, cell culture media was removed and cells were washed with PBS once before fixation with 3.5% formaldehyde PBS solution for 13 minutes. Cells were then washed with PBS, and permeabilized for 5 minutes with 0.5% triton X-100 in PBS. Cells were blocked with 0.2% tween in TBS (Tween 20, AmericanBio, Ref AB02038-00500) and 3% BSA (Sigma, A9418) for one hour at room temperature. […] After incubation for 1 hour in a humidified chamber protected from light, cells were washed 3× with PBST for 5 minutes each. Cells were then treated with Alexa Fluor 568-labeled secondary antibody (Abcam, ab175473) at 1:500 dilution. Cells were washed 3× with PBST for 5 minutes each, then treated with PBS containing Hoechst stain (final concentration 1 μg/mL), incubated at room temperature for at least 10 minutes, and imaged. Cells were visualized using a Zeiss Axio Observer Z1 inverted microscope using 63× magnification under oil. Image analysis was performed on ZEN2 (blue edition) version 2.0.0.0."}, "α-DNP antibody [2]": {"test_system": "α-DNP antibody", "experiment": "In vivo serum levels of α-DNP antibody in mice (ELISA)", "details": "FIG. 8D, single variable dose", "method": "In vivo experiments were performed under Yale University IACUC supervision following protocol entitled “pre-clinical evaluation of small molecule immunomodulators” (Protocol number 2017-11445). Experiments were performed in male nude mice purchased from Jackson Laboratory (NU/J, Stock No. 002019). Compounds were administered i.p. in a volume of 100 μL PBS. Approximately 25 μL of blood was collected at each time point by saphenous bleed. Antibody was administered as 40 μg in 100 μL i.p. Compounds were administered daily at the specified dose throughout the course of experiments. For data analysis, antibody levels were normalized to the recorded concentration of antibody observed in each mouse 24 hours after the i.p. administration.\nELISA analysis of serum samples was performed using MaxiSorp 96 well plates (Thermo, 44-2404-21). Plates were coated with 50 μL of BSA-DNP (Invitrogen, A23018) at 100 ug/mL in PBS and incubated at 4° C. overnight. Coating solution was then removed, and the plates were blocked with 2% BSA in PBS for 2 hours at room temperature, followed by washing twice with PBST (0.2% Tween). Serum samples were diluted in 2% BSA in PBS. […] The plates were then treated with TMB (Thermo 34028) followed by 2 M H2SO4 and analyzed for OD at 450 nm on a plate reader (BioTek Synergy 2). Sample concentrations were determined against a standard curve."}, "[3]": {"test_system": "α-DNP antibody / ASGPR on hepatocytes", "experiment": "Ternary complex formation between hepatocytes and α-DNP antibody", "format": "cell-based"}, "α-DNP antibody [4]": {"test_system": "α-DNP antibody", "experiment": "Endocytosis of α-DNP antibody in hepatocytes", "format": "cell-based", "details": "FIG. 6C; 12 hour time point"}},
  "data": [
    {"smiles": "CC(=O)N[C@H]1[C@H](OCCOCCOCCNC(=O)CCOCC(COCCC(=O)NCCOCCOCCO[C@@H]2O[C@H](CO)[C@H](O)[C@H](O)[C@H]2NC(C)=O)(COCCC(=O)NCCOCCOCCO[C@@H]2O[C@H](CO)[C@H](O)[C@H](O)[C@H]2NC(C)=O)NC(=O)CNC(=O)COCCOCCOCCNc2ccc([N+](=O)[O-])cc2[N+](=O)[O-])O[C@H](CO)[C@H](O)[C@@H]1O", "note": "[D-MoDE-A]", "values": [
      {"measurement": "Alexa 488 signal in colocalization studies", "setting": "α-DNP antibody [1]", "result": "dependent on the presence of α-DNP antibody and D-MoDE-A"},
      {"measurement": "serum levels of α-DNP antibody", "setting": "α-DNP antibody [2]", "result": "decrease in serum levels of α-DNP antibody"},
      {"measurement": "formation of a ternary complex between hepatocytes and α-DNP antibody", "setting": "[3]; FIG. 6A", "result": "dependent on the concentration of D-MoDE-A"},
      {"measurement": "ternary complex formation in presence of competitive binders of ASGPR or α-DNP antibody", "setting": "[3]; FIG. 6B", "result": "inhibited by competitive binders of either ASGPR or α-DNP antibody"},
      {"measurement": "endocytosis of α-DNP antibody in hepatocytes", "setting": "α-DNP antibody [4]", "result": "dependent on both α-DNP antibody and DMoDE-A concentration"}
    ]}
  ]
}
